Source: patent publication US20230263909A1, “ENHANCED EFFECTS OF GENE-IMMUNOTHERAPY AND IMMUNOSUPPRESSANTS IN MULTIPLE SCLEROSIS” (University of Florida Research Foundation, Incorporated, priority 2020, published 2023)
Read-outs that look alike come from different tables or passages of the source.

Legend:
MOG35-55-induced EAE = details: vector at MCS <2.5, PRDL at MCS ≥ 3.0 (FIG. 33A)
Method: Using 8-week-old Female C57BL/6 mice, EAE was induced with a myelin oligodendrocyte glycoprotein epitope (MOG35-55) in CFA. As mice developed disease (MCS 2.0± 0.5), mice were injected with a hepatocyte-directed viral vector encoding MOG (e.g., AAV.MOG vector) and began daily administration of prednisolone (PRDL) via oral gavage (10 mg/kg animal) every 24 hours until day 7. Control mice were treated with prednisolone only, without the administration of vector or with Null vector. At day 7, prednisolone treatment was discontinued, except for the half of the control group receiving treatment which continued receiving prednisolone.
An experiment was performed to assess the effect of supplementing rAAV therapy with PRDL in high clinical score mice. C57BL/6 mice were administered AAV.MOG or AAV.Null control at disease onset, or a mean clinical score of 2.0±0.5. Subsequently, at the peak of disease, or an MCS ≥ 3.0, mice were administered oral gavage of PRDL (10 mg/kg). […] Subsequently, at an MCS ≥ 3.0, mice were administered oral gavage of PRDL (10 mg/kg).
In an experiment in which the order of administrations was essentially reversed, C57BL/6 mice received AAV.MOG or AAV.Null after EAE developed to an MCS of 2.5 or higher. At the peak of disease (MCS ≥3.0), mice were started on oral gavage of PRDL as before.

[1] = tested on: established MOG35-55-induced EAE; assay: Therapeutic AAV8.MOG with transient rapamycin immunosuppression in established EAE; assay type: in vivo, C57BL/6 mice
Method: Vector Administration. […] Two weeks later, EAE was induced. To evaluate the therapeutic effect of vector administration, EAE was induced first in 9- to 11-week-old mice before the administration of vectors. As mice reached the targeted/indicated severity of disease they were injected with […] of AAV8.MOG or control vector (scAAV.GFP or sham/PBS) via the tail vein. Rapamycin (LC Laboratories, Woburn, MA, USA) was dissolved in a vehicle solution containing (0.2% w/v) carboxymethyl-cellulose sodium salt (C-5013) and (0.25% v/v) polysorbate-80 (P-8074) (Sigma, St. Louis, MO, USA) in distilled water and stored at 4° C. protected from light according to the manufacturer’s instructions. Rapamycin (5 mg/kg) was given i.p. as indicated for a total of three and five doses beginning on the day of vector administration.
To test the hypothesis, the experimental parameters that previously produced the smallest degree of disease reversal were reestablished (FIG. 23C). EAE was induced and AAV8.MOG treatment was withheld until mice developed complete tail paralysis with hind-leg paresis (MCS: 1.4 ± 0.1, combined). Immediately after being treated with either AAV8.MOG or PBS/control, all mice received an intraperitoneal injection of rapamycin (5 mg/kg). Subsequently, mice received two additional doses of rapamycin (5 mg/kg) 48 hr apart (FIGS. 24). As expected, EAE disease progressed quickly and both groups of mice developed severe neurological deficits and paralysis (peak MCS: 2.9-3.0) (FIG. 24A). […] In contrast, neurological deficits in AAV8.MOG-treated mice continued to decrease, and all but one animal (90%) achieved complete remission (final MCS: 0.5 ± 0.3) (FIG. 24A).
Next, the effectiveness of the combined immunotherapy in late and end-stage EAE disease was tested. […] Remarkably, mice that received the AAV8.MOG/rapamycin immunotherapy, 71% (FIG. 24B) and 80% (FIG. 24C), respectively, responded to the treatment and went into near-complete remission (MCS: […]) by day ~30.

CD4+CD25hiFOXP3+ Tregs = assay: Peripheral blood Treg phenotyping before and after rapamycin; assay type: in vivo, C57BL/6 mice; details: after rapamycin
Excerpt: Flow Cytometry. Peripheral blood cells or splenocytes harvested from mice and processed to produce single-cell suspensions were stained with antibodies to CD3 (145-2C11), CD4 (RM4-5), CD25 (PC61), CD8 (53-6.7), B220 (RA3-6B2), CD44 (IM7), and CD62L (MEL14) (BD Biosciences, San Jose, CA, USA). Class II MHC tetramers included MOG38-49/I-Ab class II MHC (GWYRSPFSRVVH) and h.CLIP87-101 (PVSKMRMATPLLMQA), and were provided by the NIH Tetramer Core (Emory University, Atlanta, GA, USA). Red blood cell lysis was performed with VersaLyse (Beckman Coulter, Brea, CA, USA). Intracellular staining for FOXP3 was performed using the FOXP3 staining kit (eBioscience, San Diego, CA, USA). Samples were analyzed on an LSR-II flow cytometer (BD Biosciences) and post-analyzed using FCS Express 4 (Denovo Software, Los Angeles, CA, USA).
Rapamycin blocks the activation of a serine/threonine protein kinase called mammalian target of rapamycin (mTOR), which has a potent anti-proliferative effect on antigen-stimulated effector T and B cells. […] In contrast, when analyzed after the final rapamycin dose on day 10, there was an ~33% difference in total Tregs between control mice receiving rapamycin alone and AAV8.MOG-treated animals (FIGS. 24D and 24E).
CD44 is a cell-surface glycoprotein involved in cell-to-cell interactions that are important in activation, migration, and apoptosis.

[2] = tested on: plasma alanine aminotransferase (ALT); assay: Plasma alanine aminotransferase (ALT) activity; assay type: in vivo, C57BL/6 mice
Excerpt: Although various proteins have been safely expressed in the liver following AAV gene transfer,^89 evaluating the long-term stability of MOG expression in hepatocytes in the context of induced EAE was of interest. […] Additionally, hepatocyte expression of MOG persisted in the mice that received AAV8.MOG until termination of experiment at 200 days after EAE induction (FIG. 20A).
Plasma ALT levels were also monitored as an indicator of liver damage and failure of therapy. As reported above, the level of ALT activity detected in AAV8.MOG-treated mice and control mice was unremarkable throughout the rapamycin treatment window (FIGS. 24G and 24H). […] Based on the profound level of neurological impairment the control mice were experiencing, the significant rise in ALT is indicative of liver toxicity associated with end-stage organ failure (FIGS. 24B and 24C).

Row | Structure (SMILES) | effect of PRDL on induction of tolerance by vector (MOG35-55-induced EAE) | effect of PRDL on induction of tolerance by vector (MOG35-55-induced EAE; listed as PDRL) | final MCS ([1]; rapamycin-only control mice, 35 days post-treatment, late-stage cohorts) | final MCS ([1]; treated at MCS 1.4 ± 0.1, all mice rapamycin 5 mg/kg i.p. x3) | mice relapsed by day 10 ([1]; treated at MCS 1.4 ± 0.1, rapamycin without vector) [%] | increase in activated Tregs (CD4+CD44+CD25hiFOXP3+) (CD4+CD25hiFOXP3+ Tregs) [%] | plasma ALT levels ([2]; 35 days post-treatment) | plasma ALT activity ([2]; throughout the rapamycin treatment window)
1 | C[C@]12C=CC(=O)C=C1CC[C@@H]1[C@@H]2[C@@H](O)C[C@@]2(C)[C@H]1CC[C@]2(O)C(=O)CO [PRDL, prednisolone] | did not interfere with induction of tolerance | did not interfere with, nor supplement, the ability of AAV.MOG to suppress EAE |  |  |  |  |  | 
2 | CO[C@H]1C[C@@H]2CC[C@@H](C)[C@@](O)(O2)C(=O)C(=O)N2CCCC[C@H]2C(=O)O[C@H]([C@H](C)C[C@@H]2CC[C@@H](O)[C@H](OC)C2)CC(=O)[C@H](C)/C=C(\C)[C@@H](O)[C@@H](OC)C(=O)[C@H](C)C[C@H](C)/C=C/C=C/C=C/1C [rapamycin] |  |  | 3.6 ± 0.5 | 3.5 ± 0.3 | 100 | 10.5 | significant increase in plasma ALT levels | unremarkable
